How the values were obtained:
Rce1p [1] = conditions: ref [8], [10]; cited from earlier work
yeast Rce1p = biological target: T1, yeast Rce1p (Saccharomyces cerevisiae, UniProt Q03530); assay: In vitro fluorescence-based Ca1a2X proteolysis assay; type: biochemical, S. cerevisiae
T1 sequence (Q03530 1-315): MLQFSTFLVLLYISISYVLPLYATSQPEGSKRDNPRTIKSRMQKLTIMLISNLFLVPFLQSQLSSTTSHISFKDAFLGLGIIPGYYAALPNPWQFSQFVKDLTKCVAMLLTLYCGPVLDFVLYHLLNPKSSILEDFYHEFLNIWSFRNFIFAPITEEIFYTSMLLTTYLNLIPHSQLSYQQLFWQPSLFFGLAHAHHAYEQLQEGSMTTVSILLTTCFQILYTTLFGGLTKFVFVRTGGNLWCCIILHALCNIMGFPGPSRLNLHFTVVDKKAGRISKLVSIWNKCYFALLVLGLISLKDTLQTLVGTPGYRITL

Rce1p [2] = assay: Large-scale Rce1p proteolysis with ESI-MS and MS-MS identification of product; type: biochemical, S. cerevisiae; conditions: 150 μM substrate, membranes 0.3 mg/mL, 100 mM Hepes, 5 mM MgCl2, pH 7.5, 30 °C, 3–3.5 h; ESI-MS [M+2H]2+
Rce1p [3] = conditions: previously reported, ref [9], [10], [13], cited from earlier work; for Vmax: no quencher

c1cnc2c(c1)ccc1cccnc12 [1,10-phenanthroline]
inhibition of Rce1p (Rce1p [1]): inhibited

[Zn] [zinc]
inhibition of Rce1p (Rce1p [1]): inhibited

Abz-KSKTKC(C5BP)K(Dnp)IM [Peptide 4]
Vmax/KM (yeast Rce1p; carbonate-washed yeast membranes, pH 7.5, 30 °C, n=2 (2), n=5 (4)): 4.8×10^−5 min/mg protein | binding affinity of 4 relative to 2 (fold higher, from KM) (yeast Rce1p; compared with 2): 3.4 fold | efficiency (Vmax/KM) of 4 relative to 2 (fold lower) (yeast Rce1p; compared with 2): approximately 18 fold | maximal rate of 4 relative to 2 (fold lower) (yeast Rce1p; compared with 2): approximately 60 fold | identity of product of Rce1p-catalyzed proteolysis (Rce1p [2]): consistent with the expected product 8

Abz-KSKTKC(Fr)VIM
Vmax (Rce1p [3]): 600 nmol/h/mg Rce1p-containing membrane protein | Km (Rce1p [3]): 4 µM

KSKTKC(Fr)VIM
Vmax (Rce1p [3]): 600 nmol/h/mg Rce1p-containing membrane protein | Km (Rce1p [3]): 4 µM

Reference: PMC2965201 (Bioorganic & medicinal chemistry, 2010)
